Results published in patent US20250303354A1, “ACIDIC GAS REMOVAL AGENT, ACIDIC GAS REMOVAL METHOD, ACIDIC GAS ABSORPTION DEVICE, AND CLEANING DEVICE” (AGC Inc., priority 2022, published 2025).

Experiment: Amounts of carbon dioxide absorption in test liquid (physical absorption, pressure-drop method)
Assay type: physicochemical
Conditions: 30° C.; for Amount of carbon dioxide absorption, not in coexistence of water a: 100% by mass of compound as test liquid; for Amount of carbon dioxide absorption, not in coexistence of water a / Amount of carbon dioxide absorption, in coexistence of water b: calculated via Henry's constant for P 3.0 MPa; for Amount of carbon dioxide absorption, in coexistence of water b: mixture of 90% by mass of compound and 10% by mass of water; for Carbon dioxide absorption ratio b/a: ratio of absorption in coexistence of water to not in coexistence of water, 3 MPa
Experimental: A 300-mL pressure-resistant container (A) connected to a carbon dioxide cylinder by piping, and a 150-mL pressure-resistant container were prepared, and amounts of carbon dioxide absorption were determined through a procedure of (i) to (iv) shown below. A regulator and a pressure gage were connected between the carbon dioxide cylinder and pressure-resistant container (A), and pressure-resistant container (A) and pressure-resistant container (B) were soaked in a water bath.
(i) The temperature of the water bath was set to 30° C., and pressure-resistant container (B) containing 50 mL of a test liquid was degassed under reduced pressure with a vacuum pump.
(ii) Pressure-resistant container (A) was filled with carbon dioxide depressurized to 0.20 MPa through the regulator, and the pressure at that time was measured. Thereafter, pressure-resistant container (A) and pressure-resistant container (B) were connected together, and the pressure after 1 hour was measured. Assuming that carbon dioxide in an amount corresponding to the reduction of pressure was absorbed in the test liquid, the amount in moles of adsorbed carbon dioxide per unit mass (mol/kg) was calculated.
(iii) The same operation as (ii) was performed at 0.35 MPa, 0.50 MPa, 0.60 MPa, and 0.80 MPa, and the Henry's constant, Hb (MPa·kg/mol), which indicates the pressure dependence of the amount in moles of adsorbed carbon dioxide (mol/kg), was calculated.
(iv) The amount of carbon dioxide absorption per unit mass of the test liquid (g/kg) was calculated from the following expression:
n: molar mass of carbon dioxide=44 (g/mol).
In the calculation, P (MPa) was 3.0 MPa, which is a representative condition for using physical absorption liquid.
For the case that an acidic gas removing agent (100% by mass of compound) was used as a test liquid (not in coexistence of water) and the case that a mixture of 90% by mass of the acidic gas removing agent (compound) and 10% by mass of water was used as a test liquid (in the coexistence of water), the amounts of carbon dioxide absorption in the test liquids were determined.
The carbon dioxide absorption ratio is the ratio (b/a) of the amount of carbon dioxide absorption per unit mass of a mixture of 90% by mass of an acidic gas removing agent and 10% by mass of water, b (g/kg), to the amount of carbon dioxide absorption per unit mass of the acidic gas removing agent, a (g/kg).

SMILES | Amount of carbon dioxide absorption, not in coexistence of water a [g/kg] | Amount of carbon dioxide absorption, in coexistence of water b [g/kg] | Carbon dioxide absorption ratio b/a
CCCCOCC(C)OCC(C)OCC(C)OCC(C)O (stereo not drawn) [A-1] | 132 | 112 | 0.85
CCCCOCCOCC(C)OCC(C)OCC(C)O (stereo not drawn) [A-2] | 128 | 98 | 0.77
CC(O)COC(C)COC(C)COCC(C)OCC(C)OCC(C)OCC(C)O (stereo not drawn) [A-8] | 104 | 79 | 0.76
CCCCOCC(C)OCC(C)OCC(C)OCC(C)OCC(C)OCC(C)OCC(C)OC (stereo not drawn) [B-1] | 134 | 120 | 0.89
CCCCOCCOCC(C)OCC(C)OCC(C)OCC(C)OCC(C)OC (stereo not drawn) [B-2] | 157 | 140 | 0.89
CCCCOCCOCCOCC(C)OCC(C)OCC(C)OCC(C)OCC(C)OC (stereo not drawn) [B-3] | 149 | 134 | 0.90
COC(C)COC(C)COC(C)COC(C)COC(C)COC(C)COCCOC(C)(C)C (stereo not drawn) [B-4] | 142 | 128 | 0.90
C=CCOCC(C)OCC(C)OCC(C)OCC(C)OCC(C)OCC(C)OCC(C)OC (stereo not drawn) [B-5] | 129 | 120 | 0.93
COC(C)COC(C)COC(C)COCC(C)OCC(C)OCC(C)OCC(C)OC (stereo not drawn) [B-6] | 144 | 122 | 0.85
COC(C)COC(C)COC(C)COC(C)COC(C)COC(C)COCCOCC(C)C (stereo not drawn) [B-7] | 140 | 139 | 0.99
CC(O)COC(C)COC(C)CO (stereo not drawn) [C-2, tripropylene glycol, reference compound] | 92 | 65 | 0.71
OCCCCOCCCCOCCCCO [C-3, PTMG250, reference compound] | 72 | 56 | 0.78
